Assays:
[1] = Metabolic stability test (pooled human liver microsome); format: in vitro ADME; settings: percentage of test compound remained after 30 minutes, pooled human liver microsome 0.5 mg protein/mL, 1 mmol/L NADPH, 37° C., compound 0.5 μM
Method in brief: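 Pooled human liver microsomes (0.5 mg protein/mL) incubated with compound and 1 mmol/L NADPH at 37° C. in pH 7.4 Tris buffer for 0 or 30 min. Parent quantified by LC/MS/MS after methanol/acetonitrile quench; value is % remaining at 30 min versus 0 min.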

[2] = biological target: T1, hERG channel (IKr) (Homo sapiens, UniProt Q12809); test: hERG test (whole-cell patch-clamp, IKr in HEK293 cells); format: cell-based; settings: human, HEK293 cells expressing hERG channel, pH 7.4, inhibition of maximum tail current (IKr), compound 1 μM
T1 construct: expressed in transfected cells; host or cells: HEK293
Excerpt: For the purpose of risk evaluation of QT interval extension of electrocardiogram, the activity on delayed rectification K^+ current (IKr), which plays an important role in a cardiac ventricle repolarization process, was examined using the HEK293 cell that was made to express human ether-a-go-go related gene (hERG) channel.
Using an automatic patch-clamp system (PatchXpress 7000A, Axon Instruments Inc.), by a whole-cell patch-clamp method, after the cell was maintained at a membrane potential of −80 mV, IKr induced upon applying depolarizing stimulation of +50 mV for 2 seconds and further applying repolarizing stimulation of −50 mV for 2 seconds was recorded. After generated electric current became stable, a test substance dissolved at an intended concentration in extracellular fluid (137 mmol/L NaCl, 4 mmol/L KCl, 1.8 mmol/L CaCl2.2H2O, 1 mmol/L MgCl2.6H2O, 10 mmol/L glucose, 10 mmol/L HEPES (4-(2-hydroxyethyl)-1-piperazineethanesulfonic acid), pH=7.4) was applied to the cell for 10 minutes under room temperature condition. From the obtained IKr, the absolute value of the maximum tail current was measured using analysis software (DataXpress ver. 1, Molecular Devices Corporation) and the value of the electric current in a maintained membrane potential as baseline. Moreover, an inhibition ratio for the maximum tail current prior to the application of the test substance was calculated and then compared with a group of media-application (0.1% dimethylsulfoxide solution) to evaluate influence of the test substance on IKr.

[3] = tested on: AKT phosphorylation; test: AKT phosphorylation inhibitory activity in MCP-1 stimulated THP-1 cells (sandwich ELISA); format: cell-based, Human; settings: Homo sapiens, compound at 1 μmol/L, MCP-1 stimulation, read-out: AKT phosphorylation inhibition ratio
Procedure: (1) The AKT phosphorylation inhibitory activity of a compound was evaluated according to the following procedure. (2) Human monocyte-like cell line THP-1 was washed with RPMI-1640 media, incubated in the presence of 5% CO2 at 37° C. for 3 hours, washed with Hank's balanced salt solution (HBSS), adjusted to a cell concentration of 6.7×10^6/mL, and then used in an experiment. (3) 30 μL of the cell suspension and 60 μL of each compound solution containing 0.2% DMSO/HBSS were mixed and then preincubated at 37° C. for 5 minutes. 30 μL of HBSS containing 1.2 μg/mL of MCP-1 was added thereto and then incubated for 60 seconds at 37° C. (4) 30 μL of a cell lysate (the final concentrations: 20 mmol/L Tris-HCl (pH 7.5), 150 mmol/L NaCl, 1 mmol/L EDTA, 1 mmol/L EDTA, 1% Triton X-100, 2.5 mmol/L sodium pyrophosphate, 1 mmol/L β-glycerophosphate, 1 mmol/L Na3VO4, 1 μg/ml leupeptin, 50 nmol/L APMSF) was added thereto to lyse cells. (5) The amount of AKT phosphorylation in the cell solution was measured by sandwich ELISA method using anti-Phospho-Akt (Ser473) antibody and anti-AKT1 antibody. (6) Anti-Phospho-Akt (Ser473) antibodies or anti-AKT1 antibodies were immobilized onto the solid phase of a micro well plate. The prepared cell lysate was added to the micro well plate, incubated, and then washed with ELISA wash solution. (7) An anti-AKT1 antibody or anti-Phospho-Akt (Ser473) antibody, which forms a counterpart to an antibody immobilized on the solid phase, was added thereto, incubated, washed similarly, and then reacted with an HRP-labeled anti-mouse IgG antibody. (8) After incubating for 30 minutes and then washing similarly, 100 μL of TMB (3,3′,5,5″-tetramethylbenzidine) was added thereto, followed by reacting for 30 minutes. (9) 100 μL of stop solution was added to quench the color reaction, and then the absorbance at 450 nm was measured. (10) The amount of AKT phosphorylation in a sample in the absence of a compound was defined as 100% activity, and the amount of AKT phosphorylation in a sample in the absence of MCP-1 was defined as 0% activity to calculate an inhibition ratio of each compound. The measurement was performed for a 1 μmol/L solution of each compound.

[4] = biological target: PI3Kγ (Homo sapiens, UniProt P48736); test: PI3Kγ inhibitory activity (PI3-kinase HTRF assay, inhibition ratio); format: biochemical; settings: 0.5 h, compound at 10 μmol/L; read-out: PI3Kg Inhibition Ratio % (10 μM)
Method in brief: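 Compound at 10 μmol/L preincubated 10 min with PI3Kγ and PIP2 substrate, then reacted with ATP for 30 minutes at room temperature; the compound, substrate and ATP figures as printed (40 μmol/L each) are solution concentrations. HTRF 665/620 nm ratio read after 18 hours. Inhibition ratio calculated against no-compound (100%) and no-enzyme (0%) controls.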

[5] = biological target: T2, CYP3A4 (Homo sapiens, UniProt P08684); test: CYP3A4 fluorescence MBI test; format: in vitro ADME; settings: difference in IC50 with 0 or 30 minutes pre-reaction; CYP3A4 expressed in E. coli, substrate 7-BFC
T2 construct: host or cells: E. coli
Procedure: The CYP3A4 fluorescence MBI test is a test to examine the enhancement of CYP3A4 inhibition of a compound by a metabolic reaction. The test was performed using as an index, a reaction to produce a metabolite 7-hydroxytrifluoromethylcoumarin (HFC) which emits fluorescence, in which CYP3A4 expressed in E. coli was used as an enzyme and 7-benzyloxytrifluoromethylcoumarin (7-BFC) is debenzylated by CYP3A4 enzyme.
The reaction conditions are as follows: substrate: 5.6 μmol/L 7-BFC; pre-reaction time; 0 or 30 minutes; reaction time: 15 minutes; reaction temperature: 25° C. (room temperature); content of CYP3A4 (an enzyme expressed in E. coli): […] at the time of a pre-reaction and […] (when diluted 10 times) at the time of a reaction; the concentrations of a test drug: 0.625, 1.25, 2.5, 5, 10, and 20 μmol/L (6 points).
In a 96-well plate, an enzyme solution and a test drug solution were added as a pre-reaction solution into K-Pi buffer solution (pH 7.4) in the aforementioned ratio. A portion thereof was transferred to another 96-well plate to be diluted ten times with a substrate and a K-Pi buffer solution. A coenzyme, NADPH, was then added to start a reaction, which is the index (this is without a pre-reaction). After reacting for a predetermined time, 4:1 of acetonitrile: 0.5 mol/L Tris (trishydroxyaminomethane) was added to quench the reaction. To the remaining pre-reaction solution, NADPH was added to start a pre-reaction (this is with a pre-reaction). After pre-reacting for a predetermined time, a portion thereof was transferred to another plate to be diluted ten times with a substrate and K-Pi buffer solution, and thereby the index reaction is started. After reacting for a predetermined time, 4:1 of acetonitrile:0.5 mol/L Tris (trishydroxyaminomethane) was added to quench the reaction. For each plate in which the index reaction was carried out, the fluorescence value of a metabolite 7-HFC was measured with a fluorescent plate reader (Ex=420 nm, Em=535 nm).
The case wherein only DMSO (a solvent which dissolved a drug) was added to a reaction system was defined as a control (100%). When a test drug solution was added, the remaining activity (%) at each concentration was calculated, and then IC50 was calculated with a concentration and an inhibition ratio by an inverse estimation using a logistic model. When the difference in IC50 value is 5 μmol/L or more, the compound is shown as (+). When 3 μmol/L or less, the compound is shown as (−).

T2 sequence (P08684 whole entry): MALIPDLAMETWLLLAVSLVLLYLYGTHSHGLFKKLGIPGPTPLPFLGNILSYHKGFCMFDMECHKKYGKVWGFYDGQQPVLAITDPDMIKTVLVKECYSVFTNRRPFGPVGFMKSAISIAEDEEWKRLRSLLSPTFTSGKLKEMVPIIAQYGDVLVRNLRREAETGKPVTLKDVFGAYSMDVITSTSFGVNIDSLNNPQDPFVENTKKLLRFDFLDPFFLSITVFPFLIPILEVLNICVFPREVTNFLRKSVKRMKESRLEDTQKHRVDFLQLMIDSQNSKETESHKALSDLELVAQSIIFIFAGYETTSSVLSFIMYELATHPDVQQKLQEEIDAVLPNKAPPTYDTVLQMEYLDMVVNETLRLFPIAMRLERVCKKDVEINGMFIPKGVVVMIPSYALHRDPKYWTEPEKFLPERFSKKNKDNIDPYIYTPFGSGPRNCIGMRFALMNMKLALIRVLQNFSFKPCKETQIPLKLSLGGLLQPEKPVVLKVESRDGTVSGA
T1 sequence (Q12809 whole entry): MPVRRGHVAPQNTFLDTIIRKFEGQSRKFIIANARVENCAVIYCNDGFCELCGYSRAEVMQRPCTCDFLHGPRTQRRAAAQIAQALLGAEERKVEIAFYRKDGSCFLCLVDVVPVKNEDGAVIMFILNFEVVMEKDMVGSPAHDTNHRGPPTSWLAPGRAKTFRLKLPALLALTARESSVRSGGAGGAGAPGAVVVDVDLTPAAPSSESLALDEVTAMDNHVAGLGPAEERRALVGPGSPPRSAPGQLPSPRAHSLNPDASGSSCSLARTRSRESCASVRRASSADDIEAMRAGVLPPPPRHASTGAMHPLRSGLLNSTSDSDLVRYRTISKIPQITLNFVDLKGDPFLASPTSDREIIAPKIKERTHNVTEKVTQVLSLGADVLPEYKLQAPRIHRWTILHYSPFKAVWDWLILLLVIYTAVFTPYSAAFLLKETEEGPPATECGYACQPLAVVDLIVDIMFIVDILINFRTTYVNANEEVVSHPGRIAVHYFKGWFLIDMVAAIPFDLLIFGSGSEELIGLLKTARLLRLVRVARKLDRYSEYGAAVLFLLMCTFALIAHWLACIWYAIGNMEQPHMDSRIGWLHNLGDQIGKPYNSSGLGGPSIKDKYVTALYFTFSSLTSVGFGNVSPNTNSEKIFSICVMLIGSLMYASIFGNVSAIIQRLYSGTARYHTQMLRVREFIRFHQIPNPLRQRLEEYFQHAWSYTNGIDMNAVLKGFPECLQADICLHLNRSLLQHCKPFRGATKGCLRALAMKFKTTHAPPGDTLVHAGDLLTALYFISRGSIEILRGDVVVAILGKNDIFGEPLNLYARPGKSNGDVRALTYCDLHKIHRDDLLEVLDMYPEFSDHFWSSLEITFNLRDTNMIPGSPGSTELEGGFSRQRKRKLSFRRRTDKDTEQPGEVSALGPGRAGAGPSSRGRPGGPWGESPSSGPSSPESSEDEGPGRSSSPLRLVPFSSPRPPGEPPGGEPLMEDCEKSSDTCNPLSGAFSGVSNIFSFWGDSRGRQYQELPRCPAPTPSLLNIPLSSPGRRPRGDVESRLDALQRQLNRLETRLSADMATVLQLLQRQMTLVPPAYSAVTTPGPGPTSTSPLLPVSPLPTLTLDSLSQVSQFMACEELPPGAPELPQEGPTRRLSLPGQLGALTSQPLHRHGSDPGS
PI3Kγ, sequence (P48736 whole entry, species assumed): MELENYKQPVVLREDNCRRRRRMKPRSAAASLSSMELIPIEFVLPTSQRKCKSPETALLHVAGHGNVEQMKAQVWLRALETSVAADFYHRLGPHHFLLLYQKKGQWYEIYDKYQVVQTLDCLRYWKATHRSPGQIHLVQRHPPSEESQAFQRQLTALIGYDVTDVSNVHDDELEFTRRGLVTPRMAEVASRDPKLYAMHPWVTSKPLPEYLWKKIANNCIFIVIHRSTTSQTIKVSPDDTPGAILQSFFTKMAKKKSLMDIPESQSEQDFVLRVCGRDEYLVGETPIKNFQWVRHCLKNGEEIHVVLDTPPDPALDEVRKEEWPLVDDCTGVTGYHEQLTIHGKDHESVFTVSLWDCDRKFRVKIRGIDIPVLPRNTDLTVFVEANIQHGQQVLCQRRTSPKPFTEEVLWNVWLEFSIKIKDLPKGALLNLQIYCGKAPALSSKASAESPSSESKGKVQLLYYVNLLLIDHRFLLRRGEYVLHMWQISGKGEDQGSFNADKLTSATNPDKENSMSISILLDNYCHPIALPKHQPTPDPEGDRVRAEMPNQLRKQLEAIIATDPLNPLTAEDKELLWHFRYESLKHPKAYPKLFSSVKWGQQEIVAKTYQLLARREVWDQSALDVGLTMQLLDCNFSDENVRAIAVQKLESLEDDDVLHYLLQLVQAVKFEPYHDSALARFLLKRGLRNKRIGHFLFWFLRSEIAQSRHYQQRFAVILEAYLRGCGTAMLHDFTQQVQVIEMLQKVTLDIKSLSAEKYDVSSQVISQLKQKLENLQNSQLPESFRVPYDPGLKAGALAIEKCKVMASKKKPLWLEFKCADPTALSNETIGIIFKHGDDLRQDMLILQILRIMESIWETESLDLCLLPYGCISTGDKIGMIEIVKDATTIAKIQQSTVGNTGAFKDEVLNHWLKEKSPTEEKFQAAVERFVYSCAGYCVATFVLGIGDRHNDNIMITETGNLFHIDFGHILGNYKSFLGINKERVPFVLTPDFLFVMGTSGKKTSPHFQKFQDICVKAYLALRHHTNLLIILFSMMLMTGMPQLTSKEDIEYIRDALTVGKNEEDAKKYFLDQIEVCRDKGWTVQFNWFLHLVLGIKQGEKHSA

| Structure (SMILES) | hLMS_ox(at 0.5 μM) % [1] [%] | inhibition at 10 min, 1 µM [2] [%] | inhibition at 1 µM [3] [%] | inhibition at 10 µM [4] [%] | MBI [5] |
| --- | --- | --- | --- | --- | --- |
| COc1cc(N2CCc3nc(NC(=O)Nc4cn(C)nc4C(=O)N[C@@H](C)CO)sc3C2)nc(OC)n1 [Compound I-155] | 95.9 | 2.9 | ≥ 95 | 90 | – |
| COC(=O)[C@H](CO)NC(=O)c1nn(C)cc1NC(=O)Nc1nc2c(s1)CN(c1cc(OC)nc(OC)n1)CC2 [Compound I-167] | – | – | ≥ 95 | ≥ 95 | – |
| COc1cc(N2CCc3nc(NC(=O)Nc4ccccc4C(=O)NC(C)C(F)(F)F)sc3C2)nc(OC)n1 (centres unmarked) [Compound I-136] | – | – | 84 | ≥ 95 | – |
| COc1cc(N2CCc3nc(NC(=O)Nc4ccccc4C(=O)NC(C)C#N)sc3C2)nc(OC)n1 (centres unmarked) [Compound I-159] | 85.6 | 3.8 | ≥ 95 | 77 | – |
| COc1cc(N2CCc3nc(NC(=O)Nc4ccccc4C(=O)NC(C)(C)C)sc3C2)nc(OC)n1 [Compound I-7] | – | – | 77.6 | 93 | – |
| COc1cc(N2CCc3nc(NC(=O)Nc4cn(C)nc4C(=O)NCC#N)sc3C2)nc(OC)n1 [Compound I-152] | 96.8 | 4.7 | ≥ 95 | ≥ 95 | – |
| CS(=O)(=O)c1cncc(N2CCc3nc(NC(=O)Nc4ccccc4C(=O)NCC#N)sc3C2)c1 [Compound I-210] | – | – | 93 | 91 | (−) (When 3 μmol/L or less, the compound is shown as (−)) |
| COc1cc(N2CCc3nc(NC(=O)Nc4cnccc4OCCC(C)C)sc3C2)nc(OC)n1 [Compound I-97] | – | – | 80.4 | ≥ 95 | (−) (When 3 μmol/L or less, the compound is shown as (−)) |
| COc1cc(N2CCc3nc(NC(=O)Nc4ccccc4C(=O)NC4CCOC4)sc3C2)nc(OC)n1 (centres unmarked) [Compound I-135] | 85.8 | 1.8 | 89 | ≥ 95 | – |
| Cc1cc(N2CCc3nc(NC(=O)Nc4ccccc4C(=O)N[C@H](C)CO)sc3C2)nc(Cl)n1 [Compound I-169] | 94.4 | 2.7 | 75 | ≥ 95 | – |
| COc1cc(N2CCc3nc(NC(=O)Nc4ccccc4C(=O)NC4CCCCC4O)sc3C2)nc(OC)n1 (centres unmarked) [Compound I-161] | – | 6.1 | 93 | ≥ 95 | – |
| COc1cc(N2CCc3nc(NC(=O)Nc4ccccc4C(=O)NN4CCOCC4)sc3C2)nc(OC)n1 [Compound I-193] | 91.2 | – | 81 | 92 | – |
| COc1cc(N2CCc3nc(NC(=O)Nc4cn(C)nc4C(=O)NC4CCOC4)sc3C2)nc(OC)n1 (centres unmarked) [Compound I-156] | – | 2.7 | ≥ 95 | 80 | – |
| CC(C)NC(=O)c1ccccc1NC(=O)Nc1nc2c(s1)CN(c1cncc(S(C)(=O)=O)c1)CC2 [Compound I-166] | – | 1.8 | 76 | ≥ 95 | – |
| CC(C)NC(=O)c1nn(C)cc1NC(=O)Nc1nc2c(s1)CN(c1cncc(C#N)c1)CC2 [Compound I-205] | – | 0.2 | 90 | ≥ 95 | – |
| [2H]C([2H])([2H])[C@@H](CO)NC(=O)c1ccccc1NC(=O)Nc1nc2c(s1)CN(c1cc(OC)nc(OC)n1)CC2 [Compound I-154] | 98.7 | – | ≥ 95 | ≥ 95 | – |
| COc1cc(N2CCc3nc(NC(=O)Nc4ccccc4C(=O)NC4CCCOC4)sc3C2)nc(OC)n1 (centres unmarked) [Compound I-160] | – | – | ≥ 95 | ≥ 95 | – |
| [2H]C([2H])([2H])C([2H])(NC(=O)c1ccccc1NC(=O)Nc1nc2c(s1)CN(c1cc(OC)nc(OC)n1)CC2)C([2H])([2H])[2H] [Compound I-153] | 83 | – | ≥ 95 | ≥ 95 | (−) (When 3 μmol/L or less, the compound is shown as (−)) |
